System: DU-145 multicell spheroids with HUVEC/MSC, viability
Assay: Anticancer human tumor DU-145 cell line growth inhibition [IpAb];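 further: spheroids exposed to agents for seven days before measurement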;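 on viability, T/C: percent of DMSO vehicle control viability so 100% = untreated level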
Conditions: for IC50: curve of first compound; for viability, T/C: stronger effect = lower value; active means viability on the fitted dose curve at most 10% of control; inactive means the rest
Outline: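 Spheroids of 60% malignant cells, 25% HUVEC and 15% MSC were exposed to targeted agents combined with ipatasertib or abemaciclib. Doses started at or near clinical Cmax (10 microM when unknown) and fell in half-log steps.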

[1] = second compound 0.01 µM, first compound 0.00949 µM
[2] = second compound 0.01 µM, first compound 0.03 µM
[3] = second compound 0.01 µM, first compound 0.0949 µM
[4] = second compound 0.01 µM, first compound 0.3 µM
[5] = second compound 0.0316 µM, first compound 0.00949 µM
[6] = second compound 0.0316 µM, first compound 0.03 µM
[7] = second compound 0.0316 µM, first compound 0.0949 µM
[8] = second compound 0.0316 µM, first compound 0.3 µM
[9] = second compound 0.1 µM, first compound 0.00949 µM
[10] = second compound 0.1 µM, first compound 0.03 µM
[11] = second compound 0.1 µM, first compound 0.0949 µM
[12] = second compound 0.1 µM, first compound 0.3 µM
[13] = second compound 0.316 µM, first compound 0.00949 µM
[14] = second compound 0.316 µM, first compound 0.03 µM
[15] = second compound 0.316 µM, first compound 0.0949 µM
[16] = second compound 0.316 µM, first compound 0.3 µM
[17] = second compound 1 µM, first compound 0.00949 µM
[18] = second compound 1 µM, first compound 0.03 µM
[19] = second compound 1 µM, first compound 0.0949 µM
[20] = second compound 1 µM, first compound 0.3 µM
[21] = second compound 0.01 µM, first compound 0.0316 µM
[22] = second compound 0.01 µM, first compound 0.1 µM
[23] = second compound 0.01 µM, first compound 0.316 µM
[24] = second compound 0.01 µM, first compound 1 µM
[25] = second compound 0.0316 µM, first compound 0.0316 µM
[26] = second compound 0.0316 µM, first compound 0.1 µM
[27] = second compound 0.0316 µM, first compound 0.316 µM
[28] = second compound 0.0316 µM, first compound 1 µM
[29] = second compound 0.1 µM, first compound 0.0316 µM
[30] = second compound 0.1 µM, first compound 0.1 µM
[31] = second compound 0.1 µM, first compound 0.316 µM
[32] = second compound 0.1 µM, first compound 1 µM
[33] = second compound 0.316 µM, first compound 0.0316 µM
[34] = second compound 0.316 µM, first compound 0.1 µM
[35] = second compound 0.316 µM, first compound 0.316 µM
[36] = second compound 0.316 µM, first compound 1 µM
[37] = second compound 1 µM, first compound 0.0316 µM
[38] = second compound 1 µM, first compound 0.1 µM
[39] = second compound 1 µM, first compound 0.316 µM
[40] = second compound 1 µM, first compound 1 µM
[41] = second compound 0.01 µM, first compound 3.16 µM
[42] = second compound 0.01 µM, first compound 10 µM
[43] = second compound 0.0316 µM, first compound 3.16 µM
[44] = second compound 0.0316 µM, first compound 10 µM
[45] = second compound 0.1 µM, first compound 3.16 µM
[46] = second compound 0.1 µM, first compound 10 µM
[47] = second compound 0.316 µM, first compound 3.16 µM
[48] = second compound 0.316 µM, first compound 10 µM
[49] = second compound 1 µM, first compound 3.16 µM
[50] = second compound 1 µM, first compound 10 µM

CC(=O)c1c(C)c2cnc(Nc3ccc(N4CCNCC4)cn3)nc2n(C2CCCC2)c1=O + CCN1CCN(Cc2ccc(Nc3ncc(F)c(-c4cc(F)c5nc(C)n(C(C)C)c5c4)n3)nc2)CC1
inactive: viability, T/C (second compound 0.01 µM, first compound 0.000949 µM) 88.5% | viability, T/C (second compound 0.01 µM, first compound 0.003 µM) 90.5% | viability, T/C [1] 87.2% | viability, T/C [2] 90.4% | viability, T/C [3] 90.2% | viability, T/C [4] 84.8% | viability, T/C (second compound 0.0316 µM, first compound 0.000949 µM) 93.7% | viability, T/C (second compound 0.0316 µM, first compound 0.003 µM) 84.9% | viability, T/C [5] 90% | viability, T/C [6] 85.4% | viability, T/C [7] 83.4% | viability, T/C [8] 80.9% | viability, T/C (second compound 0.1 µM, first compound 0.000949 µM) 78.6% | viability, T/C (second compound 0.1 µM, first compound 0.003 µM) 76.9% | viability, T/C [9] 77.9% | viability, T/C [10] 76.9% | viability, T/C [11] 73.4% | viability, T/C [12] 76.7% | viability, T/C (second compound 0.316 µM, first compound 0.000949 µM) 74.5% | viability, T/C (second compound 0.316 µM, first compound 0.003 µM) 72% | viability, T/C [13] 75.5% | viability, T/C [14] 75% | viability, T/C [15] 71.3% | viability, T/C [16] 66.6% | viability, T/C (second compound 1 µM, first compound 0.000949 µM) 58.9% | viability, T/C (second compound 1 µM, first compound 0.003 µM) 61.2% | viability, T/C [17] 61.6% | viability, T/C [18] 60.4% | viability, T/C [19] 58% | viability, T/C [20] 60.2%
> 300 nM: IC50 (second compound 0.01 µM) | IC50 (second compound 0.0316 µM) | IC50 (second compound 0.1 µM) | IC50 (second compound 0.316 µM) | IC50 (second compound 1 µM)

CC(C)(C)c1cnc(CSc2cnc(NC(=O)C3CCNCC3)s2)o1 + CCN1CCN(Cc2ccc(Nc3ncc(F)c(-c4cc(F)c5nc(C)n(C(C)C)c5c4)n3)nc2)CC1
60.4 nM: IC50 (second compound 0.316 µM)
34.9 nM: IC50 (second compound 1 µM)
active: viability, T/C (second compound 0.01 µM, first compound 0.949 µM) 6.08% | viability, T/C (second compound 0.01 µM, first compound 3 µM) 5.15% | viability, T/C [8] 8.69% | viability, T/C (second compound 0.0316 µM, first compound 0.949 µM) 5.54% | viability, T/C (second compound 0.0316 µM, first compound 3 µM) 5.3% | viability, T/C [12] 7.33% | viability, T/C (second compound 0.1 µM, first compound 0.949 µM) 5.93% | viability, T/C (second compound 0.1 µM, first compound 3 µM) 4.44% | viability, T/C [16] 7.83% | viability, T/C (second compound 0.316 µM, first compound 0.949 µM) 5.35% | viability, T/C (second compound 0.316 µM, first compound 3 µM) 4.86% | viability, T/C [20] 6.89% | viability, T/C (second compound 1 µM, first compound 0.949 µM) 4.71% | viability, T/C (second compound 1 µM, first compound 3 µM) 4.63%
66.6 nM: IC50 (second compound 0.1 µM)
82.2 nM: IC50 (second compound 0.0316 µM)
104 nM: IC50 (second compound 0.01 µM)
inactive: viability, T/C [1] 108% | viability, T/C [2] 98.6% | viability, T/C [3] 54% | viability, T/C [4] 8.61% | viability, T/C [5] 94.3% | viability, T/C [6] 88.2% | viability, T/C [7] 44.7% | viability, T/C [9] 87.6% | viability, T/C [10] 77.4% | viability, T/C [11] 38.1% | viability, T/C [13] 77.5% | viability, T/C [14] 75.4% | viability, T/C [15] 33.8% | viability, T/C [17] 67.8% | viability, T/C [18] 55.7% | viability, T/C [19] 12.7%

COc1c(OCCCN2CCOCC2)ccc2c3n(c(=NC(=O)c4cnc(N)nc4)nc12)CCN3 + CCN1CCN(Cc2ccc(Nc3ncc(F)c(-c4cc(F)c5nc(C)n(C(C)C)c5c4)n3)nc2)CC1
4.36 nM: IC50 (second compound 0.316 µM)
7.99 nM: IC50 (second compound 0.01 µM)
active: viability, T/C [28] 11.3%
4.88 nM: IC50 (second compound 0.1 µM)
inactive: viability, T/C (second compound 0.01 µM, first compound 0.00316 µM) 79.2% | viability, T/C (second compound 0.01 µM, first compound 0.01 µM) 41.3% | viability, T/C [21] 28% | viability, T/C [22] 15.2% | viability, T/C [23] 9.78% | viability, T/C [24] 11.9% | viability, T/C (second compound 0.0316 µM, first compound 0.00316 µM) 62.9% | viability, T/C (second compound 0.0316 µM, first compound 0.01 µM) 39.9% | viability, T/C [25] 25.3% | viability, T/C [26] 13.5% | viability, T/C [27] 9.95% | viability, T/C (second compound 0.1 µM, first compound 0.00316 µM) 57.1% | viability, T/C (second compound 0.1 µM, first compound 0.01 µM) 38% | viability, T/C [29] 23.4% | viability, T/C [30] 14.2% | viability, T/C [31] 10.9% | viability, T/C [32] 11.5% | viability, T/C (second compound 0.316 µM, first compound 0.00316 µM) 53.6% | viability, T/C (second compound 0.316 µM, first compound 0.01 µM) 40.4% | viability, T/C [33] 29.7% | viability, T/C [34] 17.7% | viability, T/C [35] 13.5% | viability, T/C [36] 14% | viability, T/C (second compound 1 µM, first compound 0.00316 µM) 54.4% | viability, T/C (second compound 1 µM, first compound 0.01 µM) 42.8% | viability, T/C [37] 32.9% | viability, T/C [38] 25.7% | viability, T/C [39] 19.7% | viability, T/C [40] 20.8%
6.14 nM: IC50 (second compound 0.0316 µM)
4.94 nM: IC50 (second compound 1 µM)

Cc1nc(NC(=O)N2CCCC2C(N)=O)sc1-c1ccnc(C(C)(C)C(F)(F)F)c1 (stereo not given) + CCN1CCN(Cc2ccc(Nc3ncc(F)c(-c4cc(F)c5nc(C)n(C(C)C)c5c4)n3)nc2)CC1
168 nM: IC50 (second compound 1 µM)
inactive: viability, T/C [21] 75.3% | viability, T/C [22] 59.4% | viability, T/C [23] 39.9% | viability, T/C [24] 31.5% | viability, T/C [41] 19.4% | viability, T/C [25] 73.5% | viability, T/C [26] 45.8% | viability, T/C [27] 38% | viability, T/C [28] 29.5% | viability, T/C [43] 19.2% | viability, T/C [44] 8.68% | viability, T/C [29] 67.1% | viability, T/C [30] 49.2% | viability, T/C [31] 33.8% | viability, T/C [32] 28.6% | viability, T/C [45] 20.5% | viability, T/C [46] 11% | viability, T/C [33] 61% | viability, T/C [34] 49.7% | viability, T/C [35] 36.8% | viability, T/C [36] 32.4% | viability, T/C [47] 24.1% | viability, T/C [48] 16% | viability, T/C [37] 58.1% | viability, T/C [38] 55% | viability, T/C [39] 43.8% | viability, T/C [40] 39% | viability, T/C [49] 28.4% | viability, T/C [50] 21.5%
116 nM: IC50 (second compound 0.0316 µM)
active: viability, T/C [42] 9.2%
97.3 nM: IC50 (second compound 0.1 µM)
186 nM: IC50 (second compound 0.01 µM)
94.1 nM: IC50 (second compound 0.316 µM)

Cn1nccc1Nc1nccc(-c2ccn(C(CO)c3ccc(Cl)c(F)c3)c(=O)c2)n1 (stereo not given) + CCN1CCN(Cc2ccc(Nc3ncc(F)c(-c4cc(F)c5nc(C)n(C(C)C)c5c4)n3)nc2)CC1
7220 nM: IC50 (second compound 0.0316 µM)
inactive: viability, T/C [21] 86.9% | viability, T/C [22] 68.4% | viability, T/C [23] 71% | viability, T/C [24] 85.6% | viability, T/C [41] 103% | viability, T/C [42] 82.1% | viability, T/C [25] 85.4% | viability, T/C [26] 64.7% | viability, T/C [27] 69.8% | viability, T/C [28] 82.5% | viability, T/C [43] 105% | viability, T/C [44] 37.7% | viability, T/C [29] 65.2% | viability, T/C [30] 60.4% | viability, T/C [31] 63.5% | viability, T/C [32] 75.1% | viability, T/C [45] 92.6% | viability, T/C [46] 53.6% | viability, T/C [33] 67.1% | viability, T/C [34] 60.7% | viability, T/C [35] 61.9% | viability, T/C [36] 77% | viability, T/C [47] 79.1% | viability, T/C [48] 54.8% | viability, T/C [37] 66.4% | viability, T/C [38] 68.2% | viability, T/C [39] 61.5% | viability, T/C [40] 73.5% | viability, T/C [49] 90.2% | viability, T/C [50] 64.3%
> 10000 nM: IC50 (second compound 0.01 µM) | IC50 (second compound 0.1 µM) | IC50 (second compound 0.316 µM) | IC50 (second compound 1 µM)

From PubChem BioAssay AID2060335 (Molecular Pharmacology Branch, DTP, NCI, 2025)
